This note sets out measurements from patent publication US11072619B2, “Pyrazole[1,5-a] pyrimidine derivatives as kinase JAK inhibitors” (CELON PHARMA S.A., priority 2017, dated 2021).

Test [1] concerns TF-1 cells. The test is described as follows: TF-1 cells viability in vitro in the presence of IL-4 (JAK1/JAK3 activation). It is filed as cell-based. The conditions noted are these: for IC50: Homo sapiens, TF-1, 20 ng/mL IL-4, 72 hours, ATPlite, read-out: JAK1,3 IL4 (EC50, inhibition of viability of TF-1 cells); for JAK2/JAK1,3 Ratio: ratio of TF-1 viability EC50 with IL3 to EC50 with IL4. The protocol: Assay for TF-1 Cells Viability In Vitro
The effects of the activity of the compounds of the invention were tested in vitro using cells viability assay described below.
Tested compounds were dissolved in 100% DMSO, and obtained stock solutions were serially diluted in OptiMEM medium (Reduced Serum Medium-Thermo Fisher Scientific). TF-1 cells (DSMZ no.: ACC 334) in culture medium (80% RPMI 1640+20% FBS) ad in the presence of 5 ng/mL IL-3 or 20 ng/mL IL-4 were deposited on 96-well plates in the volume of 90 μl per well, 10 thousands of cells per well. To a well of the 96-well plate 10 μL of the prepared 10× stock solutions of the compounds. Cells on 96-well plates were incubated with the compounds for 72 hours at 37° C., 5% CO2. Subsequently, viability of the cells was measured using ATPlite kit (Perkin Elmer). For this purpose, 50 μL of lysis buffer (mammalian cell lysis solution) were added to a well of the 96-well plate and the plate was incubated for 10 minutes at 25° C. in a plate thermo-shaker with orbital stirring at 600 rpm. Then to a well of the 96-well plate 50 μL of substrate (substrate solution) were added and incubated for 15 minutes at in dark, in a plate thermo-shaker with orbital stirring at 600 rpm. After incubation time, luminescence intensity in a well was measured using Victor×Light luminometer (Perkin Elmer, Inc.).
On the basis of luminescence intensity measurements in well containing tested compounds at various concentrations and in control wells EC50 values were determined. These values were determined with Graph Pad software v. 5.03, by fitting points of the curve using non-linear regression method. Each compound was tested in at least 6 repetitions (6 wells) on two 96-well plates, using at least 3 wells of each control.

The subject of test [2] is TNFα secreted by lymphocytes T. The test is described as follows: Inhibition of TNFα production by lymphocytes T in vitro. The test is classed as cell-based. The following applies: Lymphocyte, 48 hours, human CD4+ lymphocytes T; for inhibition at 0.01 µM: 10 nM; for inhibition at 0.1 µM: 100 nM; for inhibition at 1 µM: 1000 nM. The protocol:
(§1) Assay for Inhibition of TNFα and INFγ Production by Lymphocytes T In Vitro
(§2) The activity of the compounds of the invention was tested using in vitro assay described below.
(§3) Tested compounds were dissolved in 100% DMSO, and obtained stock solutions were serially diluted with OptiMEM medium (Reduced Serum Medium-Thermo Fisher Scientific). Lymhocytes were isolated from leukocyte top coat layer obtained from human peripheral blood. Isolation of peripheral blood mononuclear cells was performed using Ficoll-Paque+Leucosept gradient method, with lymphocytes isolation using CD4+ T Cell Isolation Kit, and activation using T Cell Activation/Expansion Kit (Miltenyi Biotec). Isolated cells in culture medium (90% RPMI 1640+10% FBS) were sived on 12-well plates at 450 μL/well, 300 thousands/well, and 50 μL of prepared 10× stock solutions of tested compounds were added. After 48 hours supernatant was collected for determination of the level of secreted cytokines. Before determination, cells were centrifuged at 1000 g, 10 min. Determination was performed with flow cytometer FACS Calibur using LEGENDplex Human Th cytokine kit. Results are presented in Table 3 as a percentage of inhibition of TNFα i INFγ cytokines secreted by lymphocytes T with reference to control cells.

Test [3] addresses Recombinant kinase JAK1 (Homo sapiens (Human), UniProt P23458). The test is described as follows: In vitro JAK kinase inhibition assay (ADP-Glo), JAK1. The conditions noted are these: 30 μM ATP, peptide IRS-1, averaged. The test is classed as biochemical. The protocol: In Vitro JAK Kinase Inhibition Assay
The effects of the compounds of the invention were analysed in vitro using kinase JAK inhibition assay described below.
Tested compounds were dissolved in 100% DMSO, and obtained stock solutions were serially diluted in the reaction buffer (50 mM Tris pH 7.5, 10 mM MgCl2, 0.25 mM EGTA, 0.1 mM Na3VO4, 0.01% Triton X-100, 2.5 mM DTT). Recombinant kinases JAK1 (ProQinase), JAK2, or JAK3 (Carna Biosciences) were diluted in the dilution buffer (50 mM Tris-HCl pH 7.5, 150 mM NaCl, 10% glycerol, 0.05% Triton X-100, 1 mM DTT) to the final concentration 3 ng/μL (JAK1), 0.1 ng/μL (JAK2), or 0.2 ng/μL (JAK3). 5 μL of obtained solution of the compounds and 5 μL of the solution of respective kinases were added to the well of a 96-well plate. To initiate interaction between tested compounds and an enzyme, the plate was incubated for 10 minutes at 25° C. in a Plate-Thermo-Shaker with orbital stirring at 400 rpm. Wells of a negative control contained all reagents as mentioned above with the exception of tested compounds and kinase, and wells of a positive controls contained all reagents as mentioned above with the exception of tested compounds. Enzymatic reaction was initiated by the addition of 15 μL of the following solution: 5× concentrated reaction buffer (50 mM Tris pH 7.5, 10 mM MgCl2, 0.25 mM EGTA, 0.1 mM Na3VO4, 0.01% Triton X-100, 2.5 mM DTT), water, 30 μM ATP and for particular kinases: JAK1—60 μM peptide IRS-1 (Enzo), JAK2 or JAK3—10 μM peptide IGF-1Rtide (Lipopharm). Then the plate was incubated for 1 hour at 25° C. in a Plate-Thermo-Shaker, with orbital stirring at 400 rpm. Detection of ADP formed in the enzymatic reaction was then performed using ADP-Glo Kinase Assay kit (Promega). For this purpose, to the well of the 96-well plate 25 μL of ADP-Glo Reagent were added, and the plate was incubated for 40 minutes at 25° C. in a Plate-Thermo-Shaker with orbital stirring at 400 rpm. Then to the well of the 96-well plate 50 μL of Kinase Detection Reagent were added and the plate was incubated for 30 minutes at 25° C. in a Plate-Thermo-Shaker with orbital stirring at 400 rpm. After incubation, luminescence intensity was measured using Victor×Light luminometer (Perkin Elmer, Inc.).
On the basis of luminescence measurement in wells containing tested compounds at various concentrations and in control wells, IC50 values were determined. These values were determined with Graph Pad software v. 5.03, by fitting points of the curve using non-linear regression method. Each compound was tested in at least 6 repetitions (6 wells) on two 96-well plates, using at least 3 wells of each control.
Averaged results of kinases JAK inhibition activity for selected compounds of the present invention are presented below in Table 1.
On the technique in general: ADP-Glo first removes unused ATP, then detects ADP through luciferase.

Test [4] relates to INFγ secreted by lymphocytes T. The test is described as follows: Inhibition of INFγ production by lymphocytes T in vitro. It is filed as cell-based. The following applies: Lymphocyte, 48 hours, human CD4+ lymphocytes T; for inhibition at 0.01 µM: 10 nM; for inhibition at 0.1 µM: 100 nM; for inhibition at 1 µM: 1000 nM. The protocol: as §1, §2, §3

Recombinant kinase JAK1, sequence (P23458 whole entry): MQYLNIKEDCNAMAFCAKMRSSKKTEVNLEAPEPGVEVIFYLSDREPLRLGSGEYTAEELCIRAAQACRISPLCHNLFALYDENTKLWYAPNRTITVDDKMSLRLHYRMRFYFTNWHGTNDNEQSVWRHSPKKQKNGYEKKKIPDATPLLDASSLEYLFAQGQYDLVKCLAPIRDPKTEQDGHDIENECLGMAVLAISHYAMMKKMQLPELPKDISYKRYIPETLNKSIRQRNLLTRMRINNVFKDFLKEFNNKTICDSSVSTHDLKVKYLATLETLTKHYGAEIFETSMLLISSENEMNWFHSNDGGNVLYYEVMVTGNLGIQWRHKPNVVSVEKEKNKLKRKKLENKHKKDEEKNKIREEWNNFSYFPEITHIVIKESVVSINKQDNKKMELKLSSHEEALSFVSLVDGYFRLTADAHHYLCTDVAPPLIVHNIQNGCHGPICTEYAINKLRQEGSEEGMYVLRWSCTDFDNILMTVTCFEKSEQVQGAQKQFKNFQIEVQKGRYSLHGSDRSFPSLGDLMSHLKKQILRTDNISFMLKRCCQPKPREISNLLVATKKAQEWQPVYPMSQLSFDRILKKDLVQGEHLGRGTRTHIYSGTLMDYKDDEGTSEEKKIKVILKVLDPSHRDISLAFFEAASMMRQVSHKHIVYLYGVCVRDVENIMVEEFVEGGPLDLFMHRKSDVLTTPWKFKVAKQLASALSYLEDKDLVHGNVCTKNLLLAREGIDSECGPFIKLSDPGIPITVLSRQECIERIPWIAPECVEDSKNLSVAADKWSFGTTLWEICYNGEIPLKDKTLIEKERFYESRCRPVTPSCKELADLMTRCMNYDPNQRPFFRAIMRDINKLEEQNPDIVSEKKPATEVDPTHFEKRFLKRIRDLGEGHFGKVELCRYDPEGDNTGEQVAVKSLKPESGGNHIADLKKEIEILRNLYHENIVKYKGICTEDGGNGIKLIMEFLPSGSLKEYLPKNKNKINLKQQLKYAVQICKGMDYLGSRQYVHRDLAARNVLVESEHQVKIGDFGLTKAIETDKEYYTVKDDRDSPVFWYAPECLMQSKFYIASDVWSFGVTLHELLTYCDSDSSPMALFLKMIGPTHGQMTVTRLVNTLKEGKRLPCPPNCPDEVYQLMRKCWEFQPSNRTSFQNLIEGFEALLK

On to `COc1ccc(-c2cc3ncc(C(N)=O)c(N[C@@H]4CCN(c5ccc(C#N)nn5)CC4(C)C)n3n2)cn1` [Example 4, (R)-7-((1-(6-Cyanopyridazin-3-yl)-3,3-dimethylpiperidin-4-yl)amino)-2-(6-methoxy-pyridin-3-yl)pyrazolo[1,5-a]pyrimidine-6-carboxamide], for which, in test [1], the IC50 stood at 69 nM and the “JAK2/JAK1,3 Ratio” value was 10.3. Also, in test [2], the inhibition (usually the change of the read-out against control, counted positive when it falls) at 0.01 µM came to 57.1%; the inhibition at 0.1 µM is 78.7%; 1 µM produced 95.3% inhibition. Besides, in test [3], the IC50 came out at 2.67 nM. In test [4], this molecule yielded an inhibition at 0.01 µM of 80.9%, an inhibition at 0.1 µM of 86.5% and an inhibition at 1 µM of 95.6%.
In the case of `CC1(C)CN(c2ccc(C#N)nn2)CC[C@H]1Nc1c(C(N)=O)cnc2cc(-c3ccc(N4CCOCC4)nc3)nn12` [Example 7, (R)-7-((1-(6-Cyanopyridazin-3-yl)-3,3-dimethylpiperidin-4-yl)amino)-2-(6-morpholinopyridin-3-yl)pyrazolo[1,5-a]pyrimidine-6-carboxamide], in test [1], the IC50 was determined as 36.1 nM and the “JAK2/JAK1,3 Ratio” value is 7.8. Further, in test [2], the inhibition at 0.01 µM is 60.6%, 0.1 µM produced 76% inhibition and the inhibition at 1 µM turned out to be 98.5%. The IC50 in test [3] amounted to 0.75 nM. In test [4], the inhibition at 0.01 µM is 73.6%, 0.1 µM produced 74.6% inhibition and 1 µM produced 98.1% inhibition.
As for `COc1cccc(-c2cc3ncc(C(N)=O)c(N[C@@H]4CCN(c5ccc(C#N)nn5)CC4(C)C)n3n2)n1` [Example 11, (R)-7-((1-(6-Cyanopyridazin-3-yl)-3,3-dimethylpiperidin-4-yl)amino)-2-(6-methoxy-pyridin-2-yl)pyrazolo[1,5-a]pyrimidine-6-carboxamide], in test [1], the IC50 stood at 61.1 nM and the “JAK2/JAK1,3 Ratio” value was 7.4. Also, in test [2], 0.01 µM produced 57.4% inhibition, the inhibition at 0.1 µM was 88.1% and testing at 1 µM gave an inhibition of 88.5%. For the same molecule, the IC50 in test [3] stood at 0.05 nM. In test [4], this molecule showed an inhibition at 0.01 µM of 88.8%, an inhibition at 0.1 µM of 93.5% and an inhibition at 1 µM of 81.4%.
Regarding `Cc1cc(-c2cc3ncc(C(N)=O)c(N[C@@H]4CCN(c5ccc(C#N)nn5)CC4(C)C)n3n2)ccn1` [Example 12, (R)-7-((1-(6-Cyanopyridazin-3-yl)-3,3-dimethylpiperidin-4-yl)amino)-2-(2-methyl-pyridin-4-yl)pyrazolo[1,5-a]pyrimidine-6-carboxamide], in test [1], the IC50 was found to be 31.1 nM and the “JAK2/JAK1,3 Ratio” value is recorded as 11.6. In test [2], this molecule gave an inhibition at 0.01 µM of 76.2%, an inhibition at 0.1 µM of 75.8% and an inhibition at 1 µM of 95.4%. In addition, the IC50 in test [3] stood at 0.51 nM. In test [4], this molecule displayed an inhibition at 0.01 µM of 86.2%, an inhibition at 0.1 µM of 88% and an inhibition at 1 µM of 93%.
